Among the data in patent US9926292B2, “Pyridinyl derivatives, pharmaceutical compositions and uses thereof” (Boehringer Ingelheim International GmbH, priority 2016, dated 2018) are IC50, melting point and death values, retold here.

The structures appear in SMILES notation.

Usually IC50 stands for the concentration that gives 50% inhibition. As a reminder, the melting point is the temperature of the solid-liquid transition.

One data set addresses T1, AOC1 (Homo sapiens, UniProt P19801).
T1 construct: purchased R&D Systems 8297-AO-010
T1 sequence (P19801 20-751): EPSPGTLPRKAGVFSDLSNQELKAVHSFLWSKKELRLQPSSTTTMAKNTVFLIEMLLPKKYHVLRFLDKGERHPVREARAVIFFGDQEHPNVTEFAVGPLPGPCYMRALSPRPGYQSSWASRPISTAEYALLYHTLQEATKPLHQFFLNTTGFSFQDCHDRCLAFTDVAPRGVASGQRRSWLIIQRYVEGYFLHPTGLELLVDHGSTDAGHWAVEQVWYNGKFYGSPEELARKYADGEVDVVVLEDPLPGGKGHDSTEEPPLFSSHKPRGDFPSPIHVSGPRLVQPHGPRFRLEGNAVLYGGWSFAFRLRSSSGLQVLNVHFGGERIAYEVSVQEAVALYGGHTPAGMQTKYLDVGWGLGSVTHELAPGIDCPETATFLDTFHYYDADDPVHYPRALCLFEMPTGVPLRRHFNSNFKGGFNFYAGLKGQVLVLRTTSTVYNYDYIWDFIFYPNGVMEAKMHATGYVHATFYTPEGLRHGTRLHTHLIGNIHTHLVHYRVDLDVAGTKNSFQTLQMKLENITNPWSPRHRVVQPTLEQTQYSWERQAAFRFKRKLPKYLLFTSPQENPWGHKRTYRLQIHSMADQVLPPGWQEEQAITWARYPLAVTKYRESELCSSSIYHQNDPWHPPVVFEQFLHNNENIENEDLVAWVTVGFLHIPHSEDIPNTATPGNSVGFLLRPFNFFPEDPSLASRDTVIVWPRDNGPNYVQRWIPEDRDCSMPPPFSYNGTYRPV
The experiment in a line: AOC1 biochemical assay (Amplex Red). The conditions noted are these: Table 1; read-out: AOC1 IC50. An excerpt: The Amplex® Red Assay (available from Thermo Fisher Scientific) provides a sensitive method for the detection of H2O2 generated during enzymatic reactions like the amine oxidation catalyzed by AOC1.

In another data set the target is T2, AOC3 (Homo sapiens, UniProt Q16853).
T2 construct: expressed in transfected cells; host or cells: CHO cells
T2 sequence (Q16853 1-763): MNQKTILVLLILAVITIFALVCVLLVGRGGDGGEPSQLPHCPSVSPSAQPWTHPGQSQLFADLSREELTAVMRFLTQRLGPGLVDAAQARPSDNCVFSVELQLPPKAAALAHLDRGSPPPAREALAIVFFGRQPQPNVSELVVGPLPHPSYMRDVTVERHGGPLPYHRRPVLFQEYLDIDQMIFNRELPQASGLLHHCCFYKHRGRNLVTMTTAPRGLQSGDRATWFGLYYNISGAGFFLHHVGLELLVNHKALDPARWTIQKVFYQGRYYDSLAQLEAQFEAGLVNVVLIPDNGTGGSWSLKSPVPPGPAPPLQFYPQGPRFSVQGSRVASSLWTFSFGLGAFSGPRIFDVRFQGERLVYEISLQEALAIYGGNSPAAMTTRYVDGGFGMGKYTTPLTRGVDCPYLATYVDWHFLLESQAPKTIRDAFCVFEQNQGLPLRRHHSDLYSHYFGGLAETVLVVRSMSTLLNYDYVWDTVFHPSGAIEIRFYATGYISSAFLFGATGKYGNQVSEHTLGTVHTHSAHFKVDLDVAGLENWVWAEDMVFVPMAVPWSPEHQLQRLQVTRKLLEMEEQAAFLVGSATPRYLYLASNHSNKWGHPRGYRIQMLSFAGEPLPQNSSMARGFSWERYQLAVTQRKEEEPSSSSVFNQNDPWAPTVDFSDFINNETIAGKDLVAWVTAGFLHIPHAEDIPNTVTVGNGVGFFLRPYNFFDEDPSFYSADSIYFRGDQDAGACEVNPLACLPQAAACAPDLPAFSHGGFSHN
The experiment in a line: AOC3 biochemical assay (MAO-Glo). The conditions noted are these: Table 1; read-out: AOC3 IC50. The procedure:
As substrate a derivate of the beetle luciferin ((4S)-4,5-dihydro-2-(6-hydroxybenzothiazolyl)-4-thiazole-carboxylic acid) is used, which is oxidized at a primary amine moiety. After a spontaneous elimination and a catalyzed esterase reaction, the turnover of the luciferine by the luciferase is recorded as a signal of AOC3 activity.
Recombinant CHO cells, overexpressing the human (1500 cells/well), mouse (1000 cells/well) or rat (500 cells/well) AOC3 enzyme are diluted in reaction buffer and added in a volume of 15 μL to the wells. After incubation for 20 minutes at 37° C., 2 μL of MAO substrate (dissolved in DMSO at 16 mM, adjusted to assay concentration in reaction buffer to a final assay concentration of 20 μM) is added and further incubated for 60 minutes at 37° C. The turnover of the substrate is determined by the addition of 20 μL of the detection-mix which was generated by the addition of reconstitution buffer with esterase (PROMEGA, #V1402) to the luciferine detection reagent (PROMEGA, #V1402).

The next data set has as its system pigs. The settings on record: aminoguanidine 100 mg/kg and gavage of histamine 2 mg/kg; cited from earlier work.

`N=C(N)NC(=O)OCc1cccc(-c2cnc(OCc3ccon3)nc2)n1` [Example 24, [6-[2-(isoxazol-3-ylmethoxy)pyrimidin-5-yl]-2-pyridyl]methyl N-carbamimidoylcarbamate] gave a melting point of 183 °C. Moreover, the IC50 on AOC1 came to 1.59 µM. For the same molecule, the IC50 on AOC3 came to 0.004 µM.

As to `N=C(N)NN` [aminoguanidine], the death in the data set with pigs was 3 out of 15.

The molecule `N=C(N)NC(=O)OCc1cccc(-c2cnc(OC[C@H]3CC3(F)F)nc2)n1` [Example 26, [6-[2-[[(1R)-2,2-difluorocyclopropyl]methoxy]pyrimidin-5-yl]-2-pyridyl]methyl N-carbamimidoylcarbamate] displayed a melting point of 193 to 196 °C. In addition, on AOC1, the IC50 was 2.52 µM. Also, the IC50 at AOC3 came out at 0.003 µM.

With `CC(F)(F)COc1ncc(-c2cccc(COC(=O)NC(=N)N)n2)cn1` [Example 20, [6-[2-(2,2-difluoropropoxy)pyrimidin-5-yl]-2-pyridyl]methyl N-carbamimidoylcarbamate], the melting point was 195 °C. For the same molecule, the IC50 on AOC1 stood at 7.21 µM. For the same molecule, the IC50 at AOC3 came to 0.005 µM.

With `N=C(N)NC(=O)OCc1cccc(-c2cnc(OCCCC(F)(F)F)nc2)n1` [Example 36, [6-[2-(4,4,4-trifluorobutoxy)pyrimidin-5-yl]-2-pyridyl]methyl N-carbamimidoylcarbamate], the melting point fell in the range of 194 to 197 °C. Further, on AOC1, the IC50 turned out to be 1.15 µM. Besides, the IC50 on AOC3 amounted to 0.005 µM.

Regarding `N=C(N)NC(=O)OCc1cccc(-c2cnc(OCc3cscn3)nc2)n1` [Example 30], the figures for the IC50 on AOC1 and on AOC3 were 0.978 µM and 0.003 µM, respectively.
